Test results from patent publication US10717966B2, “Stem cell-derived hepatocytes in co-culture and uses thereof” (Colorado State University Research Foundation, priority 2014, dated 2020).
“Also recorded” adds a separate entry of the source. Counter-ions that a name gives are not always drawn. Like-named read-outs stand apart in the source and are kept apart here.

Key:
[1] = system: iMPCCs (iHep micropatterned co-cultures); settings: human
[2] = system: iCCs (confluent monolayer cultures of iHeps); settings: human; for Toxicity call in iCCs: 6 days
[3] = cited from earlier work; for DILI Cat (DILI category): human, in vivo; for DILI Sev (DILI severity score from the LTKB of the FDA): negative number: withdrawn from the market, higher positive numbers, greater DILI concern
[4] = system: primary hepatocytes (HUM4011, Triangle Research Labs); settings: human
[5] = system: primary hepatocyte sandwich culture; settings: human, cited from earlier work
[6] = total human plasma concentration; cited from earlier work
[7] = system: primary human hepatocytes in MPCCs; settings: cited from earlier work
iMPCCs [8] = experiment: 8-day drug toxicity study in iMPCCs (albumin and urea); settings: 8 days, multiple doses
CYP2C9 and CYP3A4 [9] = experiment: Drug-mediated CYP enzyme induction in iCCs; settings: rifampicin 25 μM, phenobarbital 1 mM, 4 days
CYP2C9 and CYP3A4 [10] = settings: human
iMPCCs [11] = experiment: Drug-drug interaction: acetaminophen with BSO in iMPCCs; format: cell-based, human; settings: APAP 25·Cmax and 50·Cmax, BSO 200 μM
CYP1A2 = CYP1A2 induction in iMPCCs (7-ethoxyresorufin O-dealkylation); format: cell-based, human
[12] = system: iMPCCs (iHep micropatterned co-cultures); experiment: Drug toxicity screening in iMPCCs (albumin, ATP, urea; binary decision and TC50); settings: interpolated concentration at which activity decreases by 50% of DMSO-only controls
For DILI Cat (DILI category) in this document: key: P1: DILI type 1, dose dependent (toxic); P2: DILI type 2, idiosyncratic (toxic); N1: not known to cause liver injury (nontoxic); N2: sporadic cases (<10) of liver injury reported but generally considered safe drug to use by doctors (nontoxic); O1: hepatotoxic in animals untested in humans (toxic); O2: elevated liver enzymes observed in humans but does not lead to frank liver toxicity (nontoxic).

Which “TC50 in iMPCCs, ATP” value ([1]; 6 days) does the source give for `NC(=O)NO` [Hydroxyurea] here?
The value was 49358.3 µM.

Which results are given for `CC(=O)O[C@]1(C(C)=O)CC[C@H]2[C@@H]3C=C(Cl)C4=CC(=O)[C@@H]5C[C@@H]5[C@]4(C)[C@H]3CC[C@@]21C` [Cyproterone acetate]?
Toxicity call in iMPCCs / iHeps ([1]; 6 days): toxic; Toxicity call in iCCs [2]: non-toxic; DILI Cat (DILI category) [3]: O1

Which “DILI Cat (DILI category)” value [3] does the source give for `CNCCc1ccccn1.Cl.Cl` [Betahistine 2HCl] here?
Its value is “P2”.

With `CCOc1ccc(NC(C)=O)cc1` [Phenacetin] as the molecule, how does the “Toxicity call in iCCs” value [2] read?
Its value is “not identified as toxic”.

For `O=C(O)c1cn(C2CC2)c2cc(N3CCNCC3)c(F)cc2c1=O` [Ciprofloxacin HCl], which “TC50 in iMPCCs, ATP” value ([1]; 6 days) is on record?
The value was 804.2 µM.

With `CCc1oc2ccccc2c1C(=O)c1cc(Br)c(O)c(Br)c1` [Benzbromarone] as the molecule, how does the “DILI Cat (DILI category)” value [3] read?
The value was “P1”.

With `CNCCC=C1c2ccccc2CCc2ccccc21` [Nortriptyline HCl] as the molecule, how does the “DILI Cat (DILI category)” value [3] read?
Its value is “P2”.

Which “Toxicity call in another donor of primary hepatocytes” value (from here on “Toxicity call in another donor”) [4] does the source give for `O=C(O)/C=C\C(=O)O` [Maleic acid] here?
Its value is “borderline positive”.

What does the source list for `CC(C(=O)O)c1ccc(-c2ccccc2)c(F)c1` (centres unmarked) [Flurbiprofen]?
Comparison of urea TC50 values, iHeps vs primary hepatocytes ([1]; 6 days): higher TC50 in iHeps; DILI Cat (DILI category) [3]: P2

Which “DILI Cat (DILI category)” value [3] does the source give for `CCCCCCCCCCCCCCCC(=O)OC[C@@H](NC(=O)C(Cl)Cl)[C@H](O)c1ccc([N+](=O)[O-])cc1` [Chloramphenicol palmitate] here?
Its value is “P2”.

With `CC(=O)Nc1nnc(S(N)(=O)=O)s1` [Acetazolamide] as the molecule, how does the “Toxicity call in another donor” value [4] read?
Its value is “false negative”.

What does the source list for `CC(=O)CC(c1ccccc1)c1c(O)c2ccccc2oc1=O` (centres unmarked) [Warfarin]?
Model predictions ICC (binary decision of toxicity) [2]: −; Model predictions Sand (binary decision in sandwich cultures) [5]: −

For `O=P1(N(CCCl)CCCl)NCCCO1` (centres unmarked) [Cyclophosphamide], which “Model predictions Sand (binary decision in sandwich cultures)” value ([5]; primary hepatocyte sandwich culture) is on record?
The value was “−”.

For `CNCCC(Oc1ccc(C(F)(F)F)cc1)c1ccccc1` (centres unmarked) [Fluoxetine], which Cmax [6] is on record?
The Cmax was 49 nM.

What about the “DILI Cat (DILI category)” value [3] of the same molecule?
The value was “N2”.

And the “DILI Sev (DILI severity score from the LTKB of the FDA)” value (“DILI Sev” for short) [3]?
Its value is 3.

With `CCN(CC)CCOc1ccc(C(=C(Cl)c2ccccc2)c2ccccc2)cc1` [Clomiphene citrate] as the molecule, how does the “DILI Cat (DILI category)” value [3] read?
The value was “P2”.

For `CN(CCOc1ccc(CC2SC(=O)NC2=O)cc1)c1ccccn1` (centres unmarked) [Rosiglitazone], which “DILI Cat (DILI category)” value [3] is on record?
Its value is “N2”.

With `C[C@]12CC[C@@H]3c4ccc(O)cc4CC[C@H]3[C@@H]1CCC2=O` [Estrone] as the molecule, how does the “DILI Cat (DILI category)” value [3] read?
Its value is “P2”.

For `Cc1cccc(Nc2ccccc2C(=O)O)c1C` [Mefenamic acid], which “TC50 in iMPCCs, ATP” value ([1]; 6 days) is on record?
Its value is 2551.9 µM.

And the “TC50 in iMPCCs, Urea” value ([1]; 6 days)?
The value was 572.2 µM.

What about the “DILI Cat (DILI category)” value [3] of the same molecule?
The value was “P2”.

For `CCCCC1C(=O)N(c2ccccc2)N(c2ccccc2)C1=O` [Phenylbutazone], which “DILI Cat (DILI category)” value [3] is on record?
The value was “P2”.

What about the “TC50 in MPCCs, ATP” value [7] of the same molecule?
The value was 7586.7 µM.

What does the source list for `O=c1n(CCCN2CCN(c3cccc(Cl)c3)CC2)nc2ccccn12` [Trazodone HCl]?
TC50 in iMPCCs, ATP ([1]; 6 days): 351.5 µM; DILI Cat (DILI category) [3]: P2

Which results are given for `C=C[C@H]1C[N@@]2CC[C@H]1C[C@H]2[C@H](O)c1ccnc2ccc(OC)cc12` [Quinine]?
TC50 in iMPCCs, ATP ([1]; 6 days): 182.2 µM; DILI Cat (DILI category) [3]: P2

With `NC(=O)c1cnccn1` [Pyrazinamide] as the molecule, how does the “Toxicity call in iMPCCs / iHeps” value ([1]; 6 days) read?
Its value is “toxic”.

What about the “Toxicity call in iCCs” value [2] of the same molecule?
Its value is “non-toxic”.

And the “DILI Cat (DILI category)” value [3]?
The value was “P2”.

With `C#C[C@]1(O)CC[C@H]2[C@@H]3CCC4=Cc5oncc5C[C@]4(C)[C@H]3CC[C@@]21C` [Danazol] as the molecule, how does the “DILI Cat (DILI category)” value [3] read?
Its value is “P1”.

And the “DILI Sev” value [3]?
The value was 8.

What does the source list for `O=C(O)Cc1ccccc1Nc1c(Cl)cccc1Cl` [Diclofenac]?
DILI Cat (DILI category) [3]: P2; DILI Sev (DILI severity score from the LTKB of the FDA) [3]: 7; TC50 in MPCCs, Urea [7]: 208.2 µM

Which “DILI Cat (DILI category)” value [3] does the source give for `O=C1CC2(CCCC2)CC(=O)N1CCCCN1CCN(c2ncccn2)CC1` [Buspirone] here?
Its value is “N1”.

Which “Toxicity call in iMPCCs / iHeps” value ([1]; 6 days) does the source give for `CN1C(C(=O)Nc2ccccn2)=C(O)c2ccccc2S1(=O)=O` [Piroxicam] here?
The value was “toxic”.

And the “DILI Cat (DILI category)” value [3]?
The value was “P2”.

With `Cc1ccc(C(=O)c2cc(O)c(O)c([N+](=O)[O-])c2)cc1` [tolcapone] as the molecule, how does the “Albumin secretions, time- and dose-dependent toxicity” value [1] read?
Its value is “time- and dose-dependent toxicities”.

Which “DILI Cat (DILI category)” value [3] does the source give for `C[C@H](CS)C(=O)N1CCC[C@H]1C(=O)O` [Captopril] here?
The value was “P2”.

What about the “DILI Sev” value [3] of the same molecule?
The value was 7.

Which results are given for `COc1ccc2c(c1)[C@]13CCCC[C@@H]1[C@H](C2)N(C)CC3` [Dextromethorphan HBr]?
Model predictions ICC (binary decision of toxicity) [2]: −; Albumin and urea production after exposure (iMPCCs [8]): minimally affected; Model predictions Sand (binary decision in sandwich cultures) [5]: −

Which “CYP induction response (functional activity) in iCCs” value (CYP2C9 and CYP3A4 [9]) does the source give for `CCC1(c2ccccc2)C(=O)NC(=O)NC1=O` [phenobarbital] here?
Its value is “induced functional activity; also recorded: severely blunted”.

And the “Induction of CYP450 (3A4, 2C9) transcripts and functions in PHH-MPCCs” value (CYP450 (3A4, 2C9))?
The value was “induction”.

What about the “Fold induction of CYP450 transcripts in iMPCCs relative to PHH-MPCCs” value (CYP2C9 and CYP3A4 [10]) of the same molecule?
Its value is 60-130%.

And the “Induction in CYP450 functions in iMPCCs relative to PHH-MPCCs” value (CYP2C9 and CYP3A4 [10])?
Its value is 44-79%.

Which “Toxicity of APAP when combined with BSO” value (iMPCCs [11]) does the source give for `CC(=O)Nc1ccc(O)cc1` [Acetaminophen] here?
The value was “substantial increase in toxicity”.

What about the “DILI Cat (DILI category)” value [3] of the same molecule?
The value was “P2”.

For `CN(C)CCCN1c2ccccc2CCc2ccccc21` [Imipramine HCl], which “DILI Cat (DILI category)” value [3] is on record?
The value was “P2”.

For `Nc1ccc(S(=O)(=O)c2ccc(N)cc2)cc1` [Dapsone], which “Toxicity call in another donor” value [4] is on record?
The value was “false negative”.

And the “DILI Cat (DILI category)” value [3]?
Its value is “P1”.

Which “CYP1A2 fold induction in iMPCCs as % of values in PHH-MPCCs” value (CYP1A2) does the source give for `COc1ccc2[nH]c([S+]([O-])Cc3ncc(C)c(OC)c3C)nc2c1` (centres unmarked) [omeprazole] here?
Its value is roughly 70%.

With `C[C@@H]1C[C@H]2[C@@H]3CCC4=CC(=O)C=C[C@]4(C)[C@@]3(F)[C@@H](O)C[C@]2(C)[C@@]1(O)C(=O)CO` [Dexamethasone] as the molecule, how does the “Model predictions iMPCC (binary decision of toxicity)” value ([1]; 6 days) read?
Its value is “−”.

And the “DILI Cat (DILI category)” value [3]?
The value was “N1”.

With `CC(=O)Oc1ccccc1C(=O)O` [Aspirin] as the molecule, how does the “Model predictions iMPCC (binary decision of toxicity)” value ([1]; 6 days) read?
The value was “−”.

And the “DILI Cat (DILI category)” value [3]?
Its value is “O2”.

With `Cc1c(C)c2c(c(C)c1O)CCC(C)(COc1ccc(CC3SC(=O)NC3=O)cc1)O2` (centres unmarked) [Troglitazone] as the molecule, how does the “DILI Cat (DILI category)” value [3] read?
Its value is “P1”.

For `C#CC1(O)CC[C@H]2[C@@H]3CCC4=CC(=O)CC[C@@H]4[C@H]3CC[C@@]21CC` (mixture of isomers) [Norgestrel], which “DILI Cat (DILI category)” value [3] is on record?
The value was “P2”.

With `NNC(=O)c1ccncc1` [Isoniazid] as the molecule, how does the “Toxicity call in iMPCCs / iHeps” value ([1]; 6 days) read?
The value was “toxic”.

What about the “Toxicity call in iCCs” value [2] of the same molecule?
The value was “non-toxic”.

And the “TC50 in iMPCCs, Albumin” value [12]?
The value was 6681.1 µM.

And the “DILI Cat (DILI category)” value [3]?
The value was “P1”.

For `CCN(CC)C(=O)/C(C#N)=C/c1cc(O)c(O)c([N+](=O)[O-])c1` [entacapone], which “Albumin secretions, time- and dose-dependent toxicity” value [1] is on record?
Its value is “time- and dose-dependent toxicities”.

Which “DILI Cat (DILI category)” value [3] does the source give for `CC(=O)[C@H]1CC[C@H]2[C@@H]3CCC4=CC(=O)CC[C@]4(C)[C@H]3CC[C@]12C` [Progesterone] here?
Its value is “P2”.
